Laboratory results taken from ChEMBL document CHEMBL5303765, “Data for DCP probe BAY-7081” (2023).

Experiments:
[1] = molecular target: T1, Serine/threonine-protein kinase tousled-like 1 (Homo sapiens) (UniProt Q9UKI8); test: TLK1 SGC Tm panel (DSF); conditions: for ΔTm: Compound concentration 10.0 uM
T1 sequence (whole entry): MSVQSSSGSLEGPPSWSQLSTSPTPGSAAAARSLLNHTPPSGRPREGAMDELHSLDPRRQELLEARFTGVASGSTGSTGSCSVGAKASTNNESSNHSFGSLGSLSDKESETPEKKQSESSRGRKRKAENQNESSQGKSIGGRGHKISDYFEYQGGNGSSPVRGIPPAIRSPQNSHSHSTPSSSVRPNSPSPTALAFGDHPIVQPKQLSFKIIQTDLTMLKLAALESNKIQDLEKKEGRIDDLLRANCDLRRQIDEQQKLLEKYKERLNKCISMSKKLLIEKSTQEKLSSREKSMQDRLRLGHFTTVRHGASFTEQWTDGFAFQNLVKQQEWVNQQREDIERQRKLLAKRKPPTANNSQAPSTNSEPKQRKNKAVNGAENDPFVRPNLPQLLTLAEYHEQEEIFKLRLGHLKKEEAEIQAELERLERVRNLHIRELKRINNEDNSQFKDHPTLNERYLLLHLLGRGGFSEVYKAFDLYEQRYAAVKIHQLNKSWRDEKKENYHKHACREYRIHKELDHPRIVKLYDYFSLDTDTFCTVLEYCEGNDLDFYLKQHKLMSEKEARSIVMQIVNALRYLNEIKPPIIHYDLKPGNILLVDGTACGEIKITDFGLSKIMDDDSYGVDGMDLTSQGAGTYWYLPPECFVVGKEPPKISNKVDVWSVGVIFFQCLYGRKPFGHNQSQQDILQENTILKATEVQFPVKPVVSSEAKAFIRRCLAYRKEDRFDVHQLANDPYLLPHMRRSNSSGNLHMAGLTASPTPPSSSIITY

[2] = molecular target: T2, Muscarinic acetylcholine receptor M2 (Homo sapiens) (UniProt P08172); conditions: Compound concentration 10.0 uM
T2 sequence (whole entry): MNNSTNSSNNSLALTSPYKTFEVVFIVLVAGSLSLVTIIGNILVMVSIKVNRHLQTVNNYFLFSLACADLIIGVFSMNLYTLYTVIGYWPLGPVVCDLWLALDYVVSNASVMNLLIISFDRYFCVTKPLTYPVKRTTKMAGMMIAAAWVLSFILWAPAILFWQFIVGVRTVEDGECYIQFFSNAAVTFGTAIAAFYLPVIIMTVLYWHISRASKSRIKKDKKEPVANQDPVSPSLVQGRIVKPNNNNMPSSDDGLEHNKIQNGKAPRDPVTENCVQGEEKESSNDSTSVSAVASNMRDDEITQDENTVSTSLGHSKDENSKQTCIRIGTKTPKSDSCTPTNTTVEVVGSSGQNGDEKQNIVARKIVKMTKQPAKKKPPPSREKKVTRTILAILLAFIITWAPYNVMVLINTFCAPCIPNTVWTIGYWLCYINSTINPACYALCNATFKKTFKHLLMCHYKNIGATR

[3] = molecular target: T3, Dual specificity mitogen-activated protein kinase kinase 6 (Homo sapiens) (UniProt P52564); test: MAP2K6 SGC Tm panel (DSF); conditions: for ΔTm: Compound concentration 10.0 uM
T3 sequence (whole entry): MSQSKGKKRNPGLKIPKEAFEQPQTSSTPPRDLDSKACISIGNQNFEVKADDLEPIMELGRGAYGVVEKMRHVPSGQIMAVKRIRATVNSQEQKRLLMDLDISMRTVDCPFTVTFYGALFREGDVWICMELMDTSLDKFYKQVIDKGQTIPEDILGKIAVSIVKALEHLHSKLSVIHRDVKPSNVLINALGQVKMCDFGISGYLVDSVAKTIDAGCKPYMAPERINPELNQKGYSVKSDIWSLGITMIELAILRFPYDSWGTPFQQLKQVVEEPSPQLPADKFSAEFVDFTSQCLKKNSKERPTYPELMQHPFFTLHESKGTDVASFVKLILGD

[4] = molecular target: Sigma non-opioid intracellular receptor 1 (Homo sapiens) (UniProt Q99720); conditions: Compound concentration 10.0 uM
[5] = molecular target: T4, Mitogen-activated protein kinase kinase kinase 5 (Homo sapiens) (UniProt Q99683); test: MAP3K5 SGC Tm panel (DSF); conditions: for ΔTm: Compound concentration 10.0 uM
T4 sequence (whole entry): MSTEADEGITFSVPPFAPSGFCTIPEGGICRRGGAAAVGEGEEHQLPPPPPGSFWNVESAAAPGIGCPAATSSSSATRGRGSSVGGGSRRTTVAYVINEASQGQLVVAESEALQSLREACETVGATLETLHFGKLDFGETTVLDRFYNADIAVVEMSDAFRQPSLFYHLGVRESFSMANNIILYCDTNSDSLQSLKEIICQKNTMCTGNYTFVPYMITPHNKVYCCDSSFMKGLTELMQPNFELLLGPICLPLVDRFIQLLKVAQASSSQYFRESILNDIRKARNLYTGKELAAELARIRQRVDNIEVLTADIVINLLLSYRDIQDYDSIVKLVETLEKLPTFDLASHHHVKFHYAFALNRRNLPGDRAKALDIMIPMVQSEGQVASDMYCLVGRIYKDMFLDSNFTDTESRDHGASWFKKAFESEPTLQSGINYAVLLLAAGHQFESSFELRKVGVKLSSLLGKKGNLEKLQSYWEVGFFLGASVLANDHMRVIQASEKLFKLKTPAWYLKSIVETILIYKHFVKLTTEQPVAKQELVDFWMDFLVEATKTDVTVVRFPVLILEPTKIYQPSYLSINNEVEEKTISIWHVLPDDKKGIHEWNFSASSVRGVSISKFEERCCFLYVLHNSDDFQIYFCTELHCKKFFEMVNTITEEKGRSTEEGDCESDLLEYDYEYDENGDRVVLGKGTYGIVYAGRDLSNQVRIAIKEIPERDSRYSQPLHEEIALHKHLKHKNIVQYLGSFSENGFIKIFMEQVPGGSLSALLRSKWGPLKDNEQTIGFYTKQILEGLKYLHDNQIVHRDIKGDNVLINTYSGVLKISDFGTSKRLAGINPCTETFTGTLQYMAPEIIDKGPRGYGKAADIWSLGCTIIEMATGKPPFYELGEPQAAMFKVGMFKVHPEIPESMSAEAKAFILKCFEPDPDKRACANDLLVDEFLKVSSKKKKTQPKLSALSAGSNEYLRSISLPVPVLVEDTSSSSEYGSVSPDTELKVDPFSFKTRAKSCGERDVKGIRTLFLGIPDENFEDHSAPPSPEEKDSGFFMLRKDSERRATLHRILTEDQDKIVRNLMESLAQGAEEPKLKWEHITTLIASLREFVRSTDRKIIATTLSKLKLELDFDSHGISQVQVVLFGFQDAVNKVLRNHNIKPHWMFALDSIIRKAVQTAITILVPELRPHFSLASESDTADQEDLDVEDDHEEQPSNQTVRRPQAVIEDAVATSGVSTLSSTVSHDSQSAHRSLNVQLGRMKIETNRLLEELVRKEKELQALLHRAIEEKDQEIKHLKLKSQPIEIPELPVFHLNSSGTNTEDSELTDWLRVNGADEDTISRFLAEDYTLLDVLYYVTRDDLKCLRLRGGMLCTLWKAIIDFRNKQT

Chain of Sigma non-opioid intracellular receptor 1 (Homo sapiens) (Q99720 whole entry): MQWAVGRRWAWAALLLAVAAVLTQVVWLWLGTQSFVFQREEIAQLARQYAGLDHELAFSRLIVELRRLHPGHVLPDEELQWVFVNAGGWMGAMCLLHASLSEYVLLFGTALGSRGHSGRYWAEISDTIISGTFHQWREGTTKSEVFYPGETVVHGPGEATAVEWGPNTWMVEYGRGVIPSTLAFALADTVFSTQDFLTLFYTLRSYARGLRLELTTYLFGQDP

Row | Compound | delta Tm Staurosporine positive control [1] | ΔTm [1] | inhibition [2] | delta Tm Staurosporine positive control [3] | ΔTm [3] | inhibition [4] | delta Tm Staurosporine positive control [5] | ΔTm [5]
1 | CCC[C@@H]1CNCc2c1[nH]c(=O)c(C#N)c2N1CCC2(CC1)CC2 | 9.74 | -1.18 | 2.48% | 12.8 | -0.119 | 13.2% | 17.7 | -0.154
2 | CCC[C@H]1CNCc2c1[nH]c(=O)c(C#N)c2N1CCC2(CC1)CC2 | 9.74 | -1.34 | -1.19% | 12.8 | -0.0944 | 18.1% | 17.7 | 0.00768
